What was measured:
[1] = molecular target: Muscarinic acetylcholine receptor M3 (Homo sapiens) (UniProt P20309); details: Compound concentration 10.0 uM
[2] = molecular target: Serine/threonine-protein kinase Nek2 (Homo sapiens) (UniProt P51955); assay: Inhibition of NEK2(h) at 10.0 µM in the Eurofins Kinase panel; details: Compound concentration 10.0 uM
[3] = molecular target: T1, Oxytocin receptor (Homo sapiens) (UniProt P30559); assay: Inhibition of Oxytocin at 1 µM in the Eurofins-Panlabs radioligand binding assay (Eurofins_assay_260900); design: ligand concentration 0.8 nM, non-specific ligand with concentration 1 µM Oxytocin, incubation time 2 h, incubation temperature 25°C
T1 sequence (whole entry): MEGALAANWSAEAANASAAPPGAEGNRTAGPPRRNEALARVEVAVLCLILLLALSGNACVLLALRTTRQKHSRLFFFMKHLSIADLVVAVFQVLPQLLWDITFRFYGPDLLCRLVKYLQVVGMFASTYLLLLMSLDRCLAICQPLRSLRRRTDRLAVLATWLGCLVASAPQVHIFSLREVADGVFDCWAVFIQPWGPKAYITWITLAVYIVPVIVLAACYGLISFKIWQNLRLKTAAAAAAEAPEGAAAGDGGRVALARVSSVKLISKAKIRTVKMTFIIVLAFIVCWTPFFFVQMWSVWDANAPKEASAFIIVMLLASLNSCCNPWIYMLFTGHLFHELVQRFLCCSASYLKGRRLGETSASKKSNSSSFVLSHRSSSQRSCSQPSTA

[4] = molecular target: Macrophage colony-stimulating factor 1 receptor (Homo sapiens) (UniProt P07333); assay: Inhibition of Fms(h) at 10.0 µM in the Eurofins Kinase panel; details: Compound concentration 10.0 uM
Chain of Macrophage colony-stimulating factor 1 receptor (Homo sapiens) (P07333 whole entry): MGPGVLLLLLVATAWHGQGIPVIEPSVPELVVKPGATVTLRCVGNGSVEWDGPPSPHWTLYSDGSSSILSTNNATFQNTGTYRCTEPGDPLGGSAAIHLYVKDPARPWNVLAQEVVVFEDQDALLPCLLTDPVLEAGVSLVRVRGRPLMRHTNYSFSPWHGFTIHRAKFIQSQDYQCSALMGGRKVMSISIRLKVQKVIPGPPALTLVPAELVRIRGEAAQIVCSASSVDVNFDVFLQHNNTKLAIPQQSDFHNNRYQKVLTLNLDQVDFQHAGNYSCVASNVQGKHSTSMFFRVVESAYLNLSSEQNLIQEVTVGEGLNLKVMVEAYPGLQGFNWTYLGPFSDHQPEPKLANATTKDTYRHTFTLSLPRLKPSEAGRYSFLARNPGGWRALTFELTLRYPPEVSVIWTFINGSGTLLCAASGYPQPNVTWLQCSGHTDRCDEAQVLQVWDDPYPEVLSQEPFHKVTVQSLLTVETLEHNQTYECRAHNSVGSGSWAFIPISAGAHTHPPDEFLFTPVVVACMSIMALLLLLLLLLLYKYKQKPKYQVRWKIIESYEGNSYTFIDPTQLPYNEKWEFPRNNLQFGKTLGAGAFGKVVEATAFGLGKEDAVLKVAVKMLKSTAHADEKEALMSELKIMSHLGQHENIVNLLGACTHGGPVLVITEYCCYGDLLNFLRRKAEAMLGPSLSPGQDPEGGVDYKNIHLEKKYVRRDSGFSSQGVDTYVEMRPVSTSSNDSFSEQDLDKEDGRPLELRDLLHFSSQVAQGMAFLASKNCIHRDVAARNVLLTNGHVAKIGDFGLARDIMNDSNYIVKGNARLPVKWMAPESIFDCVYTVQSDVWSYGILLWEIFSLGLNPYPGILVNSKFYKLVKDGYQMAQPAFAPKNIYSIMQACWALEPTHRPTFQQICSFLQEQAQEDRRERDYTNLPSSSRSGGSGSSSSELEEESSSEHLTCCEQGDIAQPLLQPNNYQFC

[5] = molecular target: Serine/threonine-protein kinase TBK1 (Homo sapiens) (UniProt Q9UHD2); assay: Inhibition of TBK1(h) at 10.0 µM in the Eurofins Kinase panel; details: Compound concentration 10.0 uM
[6] = molecular target: Beta-3 adrenergic receptor (Homo sapiens) (UniProt P13945); details: Compound concentration 10.0 uM
[7] = molecular target: Serine/threonine-protein kinase SIK2 (Homo sapiens) (UniProt Q9H0K1); assay: Inhibition of SIK2(h) at 10.0 µM in the Eurofins Kinase panel; details: Compound concentration 10.0 uM
[8] = molecular target: T2, Alpha-2B adrenergic receptor (Homo sapiens) (UniProt P18089); details: Compound concentration 10.0 uM
T2 sequence (whole entry): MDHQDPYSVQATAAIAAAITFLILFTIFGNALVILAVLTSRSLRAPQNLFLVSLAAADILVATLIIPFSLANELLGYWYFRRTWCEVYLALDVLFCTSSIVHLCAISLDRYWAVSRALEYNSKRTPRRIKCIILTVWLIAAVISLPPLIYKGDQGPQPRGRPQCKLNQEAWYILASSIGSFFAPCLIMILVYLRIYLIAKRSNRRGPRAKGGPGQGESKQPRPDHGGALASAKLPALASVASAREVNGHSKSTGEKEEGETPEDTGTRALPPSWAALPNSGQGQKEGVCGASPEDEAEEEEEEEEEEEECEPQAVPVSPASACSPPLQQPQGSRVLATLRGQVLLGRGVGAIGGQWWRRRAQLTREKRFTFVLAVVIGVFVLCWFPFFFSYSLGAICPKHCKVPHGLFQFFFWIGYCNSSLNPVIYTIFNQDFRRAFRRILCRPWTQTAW

[9] = molecular target: Fibroblast growth factor receptor 1 (Homo sapiens) (UniProt P11362); assay: Inhibition of FGFR1(h) at 10.0 µM in the Eurofins Kinase panel; details: Compound concentration 10.0 uM
[10] = molecular target: Serine/threonine-protein kinase Nek7 (Homo sapiens) (UniProt Q8TDX7); assay: Inhibition of NEK7(h) at 10.0 µM in the Eurofins Kinase panel; details: Compound concentration 10.0 uM
Chain of Serine/threonine-protein kinase Nek7 (Homo sapiens) (Q8TDX7 whole entry, looked up): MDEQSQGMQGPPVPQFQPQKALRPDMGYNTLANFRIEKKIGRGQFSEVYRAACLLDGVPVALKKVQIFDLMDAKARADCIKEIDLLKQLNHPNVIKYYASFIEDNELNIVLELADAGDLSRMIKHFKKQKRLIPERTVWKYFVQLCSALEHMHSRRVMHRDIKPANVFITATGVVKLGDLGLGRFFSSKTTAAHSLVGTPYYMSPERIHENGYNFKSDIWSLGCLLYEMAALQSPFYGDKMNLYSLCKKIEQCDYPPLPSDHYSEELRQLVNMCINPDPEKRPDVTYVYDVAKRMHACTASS

[11] = molecular target: cAMP-dependent protein kinase catalytic subunit PRKX (Homo sapiens) (UniProt P51817); assay: Inhibition of PrKX(h) at 10.0 µM in the Eurofins Kinase panel; details: Compound concentration 10.0 uM
[12] = molecular target: Cyclin-dependent kinase 14/Cyclin-Y (Homo sapiens) (UniProt O94921+Q8ND76); assay: Inhibition of CDK14/cyclinY(h) at 10.0 µM in the Eurofins Kinase panel; type: protein-complex assay; details: Compound concentration 10.0 uM
[13] = molecular target: Sigma intracellular receptor 2 (Homo sapiens) (UniProt Q5BJF2); details: Compound concentration 10.0 uM
Chain of Sigma intracellular receptor 2 (Homo sapiens) (Q5BJF2 whole entry): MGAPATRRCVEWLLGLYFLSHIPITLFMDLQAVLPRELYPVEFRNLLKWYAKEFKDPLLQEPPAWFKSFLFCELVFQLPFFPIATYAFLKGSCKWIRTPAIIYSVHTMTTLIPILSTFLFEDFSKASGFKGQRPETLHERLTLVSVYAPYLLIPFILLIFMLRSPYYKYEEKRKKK

[14] = molecular target: SRSF protein kinase 1 (Homo sapiens) (UniProt Q96SB4); assay: Inhibition of SRPK1(h) at 10.0 µM in the Eurofins Kinase panel; details: Compound concentration 10.0 uM
Chain of SRSF protein kinase 1 (Homo sapiens) (Q96SB4 whole entry): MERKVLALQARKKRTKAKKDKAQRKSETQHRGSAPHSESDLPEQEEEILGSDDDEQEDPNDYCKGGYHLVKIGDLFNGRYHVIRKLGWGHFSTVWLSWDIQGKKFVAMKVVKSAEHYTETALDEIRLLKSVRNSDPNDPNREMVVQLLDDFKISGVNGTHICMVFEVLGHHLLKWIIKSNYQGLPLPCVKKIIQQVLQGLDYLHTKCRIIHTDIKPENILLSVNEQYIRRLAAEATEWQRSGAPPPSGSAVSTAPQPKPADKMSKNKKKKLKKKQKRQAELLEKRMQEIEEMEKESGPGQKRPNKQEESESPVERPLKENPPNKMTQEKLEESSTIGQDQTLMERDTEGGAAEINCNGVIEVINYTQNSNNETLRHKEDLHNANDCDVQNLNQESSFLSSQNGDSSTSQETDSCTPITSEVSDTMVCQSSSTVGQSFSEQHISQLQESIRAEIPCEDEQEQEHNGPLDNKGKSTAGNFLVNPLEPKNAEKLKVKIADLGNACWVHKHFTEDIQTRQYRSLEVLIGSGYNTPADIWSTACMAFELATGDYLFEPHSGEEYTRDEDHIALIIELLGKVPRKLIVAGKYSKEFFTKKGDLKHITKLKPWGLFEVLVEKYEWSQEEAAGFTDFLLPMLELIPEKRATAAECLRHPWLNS

[15] = molecular target: Serine/threonine-protein kinase Nek11 (Homo sapiens) (UniProt Q8NG66); assay: Inhibition of NEK11(h) at 10.0 µM in the Eurofins Kinase panel; details: Compound concentration 10.0 uM
Chain of Serine/threonine-protein kinase Nek11 (Homo sapiens) (Q8NG66 whole entry): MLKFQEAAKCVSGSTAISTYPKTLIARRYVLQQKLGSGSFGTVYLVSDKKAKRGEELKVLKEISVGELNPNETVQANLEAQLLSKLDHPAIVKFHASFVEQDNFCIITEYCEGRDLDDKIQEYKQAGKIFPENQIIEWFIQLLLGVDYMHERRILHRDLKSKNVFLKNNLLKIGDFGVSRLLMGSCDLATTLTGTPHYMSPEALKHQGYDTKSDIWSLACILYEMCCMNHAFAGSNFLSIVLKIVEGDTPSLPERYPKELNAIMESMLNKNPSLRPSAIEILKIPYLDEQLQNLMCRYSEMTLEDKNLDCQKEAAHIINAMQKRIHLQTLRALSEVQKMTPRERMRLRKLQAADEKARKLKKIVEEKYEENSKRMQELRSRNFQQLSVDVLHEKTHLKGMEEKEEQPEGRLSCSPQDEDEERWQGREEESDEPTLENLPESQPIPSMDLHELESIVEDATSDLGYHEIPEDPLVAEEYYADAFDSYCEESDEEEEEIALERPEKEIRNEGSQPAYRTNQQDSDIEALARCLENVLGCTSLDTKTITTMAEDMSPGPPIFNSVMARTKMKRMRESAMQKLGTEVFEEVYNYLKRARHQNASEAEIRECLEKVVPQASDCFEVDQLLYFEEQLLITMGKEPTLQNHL

[16] = molecular target: Ribosomal protein S6 kinase alpha-2 (Homo sapiens) (UniProt Q15349); assay: Inhibition of Rsk3(h) at 10.0 µM in the Eurofins Kinase panel; details: Compound concentration 10.0 uM
[17] = molecular target: Serine/threonine-protein kinase ULK2 (Homo sapiens) (UniProt Q8IYT8); assay: Inhibition of ULK2(h) at 10.0 µM in the Eurofins Kinase panel; details: Compound concentration 10.0 uM
[18] = molecular target: Cyclin-Y/Cyclin-dependent kinase 16 (Homo sapiens) (UniProt Q00536+Q8ND76); assay: Inhibition of CDK16/cyclinY(h) at 10.0 µM in the Eurofins Kinase panel; type: protein-complex assay; details: Compound concentration 10.0 uM
[19] = molecular target: Serine/threonine-protein kinase NIM1 (Homo sapiens) (UniProt Q8IY84); assay: Inhibition of NIM1(h) at 10.0 µM in the Eurofins Kinase panel; details: Compound concentration 10.0 uM
Chain of Serine/threonine-protein kinase NIM1 (Homo sapiens) (Q8IY84 whole entry): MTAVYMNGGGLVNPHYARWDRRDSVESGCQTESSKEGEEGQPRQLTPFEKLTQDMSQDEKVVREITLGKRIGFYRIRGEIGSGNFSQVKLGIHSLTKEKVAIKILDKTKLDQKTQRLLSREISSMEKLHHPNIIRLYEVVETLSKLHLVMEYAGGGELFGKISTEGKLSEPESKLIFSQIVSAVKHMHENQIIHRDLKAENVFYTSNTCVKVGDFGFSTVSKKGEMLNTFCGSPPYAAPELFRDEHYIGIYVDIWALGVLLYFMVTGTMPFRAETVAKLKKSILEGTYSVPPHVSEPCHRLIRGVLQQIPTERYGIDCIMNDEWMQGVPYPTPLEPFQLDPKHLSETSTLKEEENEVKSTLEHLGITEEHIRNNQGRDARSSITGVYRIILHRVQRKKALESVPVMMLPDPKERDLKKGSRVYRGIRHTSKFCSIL

[20] = molecular target: Fibroblast growth factor receptor 2 (Homo sapiens) (UniProt P21802); assay: Inhibition of FGFR2(h) at 10.0 µM in the Eurofins Kinase panel; details: Compound concentration 10.0 uM
[21] = molecular target: Serine/threonine-protein kinase pim-2 (Homo sapiens) (UniProt Q9P1W9); assay: Inhibition of Pim-2(h) at 10.0 µM in the Eurofins Kinase panel; details: Compound concentration 10.0 uM
Chain of Serine/threonine-protein kinase pim-2 (Homo sapiens) (Q9P1W9 whole entry, looked up): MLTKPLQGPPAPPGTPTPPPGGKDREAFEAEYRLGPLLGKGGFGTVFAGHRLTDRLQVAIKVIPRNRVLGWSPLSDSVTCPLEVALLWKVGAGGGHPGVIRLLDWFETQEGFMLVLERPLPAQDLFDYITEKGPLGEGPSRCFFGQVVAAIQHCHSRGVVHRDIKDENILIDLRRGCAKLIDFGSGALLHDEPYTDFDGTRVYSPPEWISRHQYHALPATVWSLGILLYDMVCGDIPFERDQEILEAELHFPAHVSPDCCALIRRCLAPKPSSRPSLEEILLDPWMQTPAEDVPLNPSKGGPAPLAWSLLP

[22] = molecular target: T3, Alpha-2A adrenergic receptor (Homo sapiens) (UniProt P08913); details: Compound concentration 10.0 uM
T3 sequence (whole entry): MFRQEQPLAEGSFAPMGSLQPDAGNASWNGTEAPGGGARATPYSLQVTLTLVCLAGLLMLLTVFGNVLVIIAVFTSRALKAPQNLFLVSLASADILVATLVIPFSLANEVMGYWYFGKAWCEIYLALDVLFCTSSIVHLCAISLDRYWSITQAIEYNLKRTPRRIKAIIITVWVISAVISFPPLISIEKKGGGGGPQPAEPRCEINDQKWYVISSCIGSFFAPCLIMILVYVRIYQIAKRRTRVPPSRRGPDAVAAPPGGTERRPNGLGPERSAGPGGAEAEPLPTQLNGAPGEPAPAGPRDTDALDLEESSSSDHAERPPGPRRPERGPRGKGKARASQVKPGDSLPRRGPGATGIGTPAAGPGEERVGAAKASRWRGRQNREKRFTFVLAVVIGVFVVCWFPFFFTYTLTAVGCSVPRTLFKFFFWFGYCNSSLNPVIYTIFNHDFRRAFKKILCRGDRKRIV

[23] = molecular target: Serine/threonine-protein kinase 25 (Homo sapiens) (UniProt O00506); assay: Inhibition of STK25(h) at 10.0 µM in the Eurofins Kinase panel; details: Compound concentration 10.0 uM
Chain of Serine/threonine-protein kinase 25 (Homo sapiens) (O00506 whole entry, looked up): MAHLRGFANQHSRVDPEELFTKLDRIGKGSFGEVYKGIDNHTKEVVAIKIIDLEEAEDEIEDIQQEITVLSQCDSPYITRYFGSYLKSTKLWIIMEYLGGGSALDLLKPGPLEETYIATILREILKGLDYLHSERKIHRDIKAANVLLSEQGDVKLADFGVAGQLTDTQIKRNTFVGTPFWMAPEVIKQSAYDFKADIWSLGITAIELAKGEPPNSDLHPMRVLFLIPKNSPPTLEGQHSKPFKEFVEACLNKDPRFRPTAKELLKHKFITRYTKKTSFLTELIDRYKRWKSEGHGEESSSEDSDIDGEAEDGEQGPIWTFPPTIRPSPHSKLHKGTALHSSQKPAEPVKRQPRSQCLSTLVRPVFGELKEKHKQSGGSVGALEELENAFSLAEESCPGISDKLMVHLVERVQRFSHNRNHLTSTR

Chain of Muscarinic acetylcholine receptor M3 (Homo sapiens) (P20309 whole entry, looked up): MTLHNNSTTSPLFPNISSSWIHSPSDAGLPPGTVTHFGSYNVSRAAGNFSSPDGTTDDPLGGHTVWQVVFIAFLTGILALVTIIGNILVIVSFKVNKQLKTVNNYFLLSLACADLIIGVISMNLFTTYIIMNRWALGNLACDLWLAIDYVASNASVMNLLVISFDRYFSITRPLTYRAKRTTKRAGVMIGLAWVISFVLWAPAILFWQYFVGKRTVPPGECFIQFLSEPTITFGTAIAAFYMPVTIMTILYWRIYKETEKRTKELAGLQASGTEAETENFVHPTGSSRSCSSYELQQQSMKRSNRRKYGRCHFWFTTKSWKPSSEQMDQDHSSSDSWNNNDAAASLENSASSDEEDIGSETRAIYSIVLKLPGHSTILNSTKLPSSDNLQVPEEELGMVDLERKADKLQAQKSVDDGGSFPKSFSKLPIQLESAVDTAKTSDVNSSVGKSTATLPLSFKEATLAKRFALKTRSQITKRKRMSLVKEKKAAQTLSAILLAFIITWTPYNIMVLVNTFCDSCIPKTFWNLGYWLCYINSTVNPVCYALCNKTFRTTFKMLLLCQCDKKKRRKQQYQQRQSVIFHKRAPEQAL
Chain of Serine/threonine-protein kinase Nek2 (Homo sapiens) (P51955 whole entry): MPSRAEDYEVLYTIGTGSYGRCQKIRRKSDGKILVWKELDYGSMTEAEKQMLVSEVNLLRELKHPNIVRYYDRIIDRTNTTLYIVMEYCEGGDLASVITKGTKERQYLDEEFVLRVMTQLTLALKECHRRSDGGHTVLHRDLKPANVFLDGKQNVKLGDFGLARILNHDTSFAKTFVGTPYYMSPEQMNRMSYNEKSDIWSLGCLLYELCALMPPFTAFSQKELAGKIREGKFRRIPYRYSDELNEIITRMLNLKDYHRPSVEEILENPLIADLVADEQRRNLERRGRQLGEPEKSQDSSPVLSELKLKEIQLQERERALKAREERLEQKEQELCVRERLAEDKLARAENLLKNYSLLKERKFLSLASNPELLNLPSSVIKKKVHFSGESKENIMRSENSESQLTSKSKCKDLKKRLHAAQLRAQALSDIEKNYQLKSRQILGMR

Row | Structure (SMILES) | inhibition [1] | inhibition [2] | inhibition [4] | inhibition [5] | inhibition [6] | inhibition [7] | inhibition [8] | inhibition [9] | inhibition [10] | inhibition [11] | inhibition [12] | inhibition [13] | inhibition [14] | inhibition [15] | inhibition [16] | inhibition [17] | inhibition [18] | inhibition [19] | inhibition [20] | inhibition [21] | also measured
1 | O=c1n(Cc2cncn2-c2cccc(Cl)c2)nc(-c2ccc(Cl)cc2)n1C[C@H](O)C(F)(F)F | -4.25% | -1.06% | 5.33% | 7.19% | 6% | 1.82% | 2% | -0.06% | 1.5% | 6.15% | -0.16% | 9.61% | -4.61% | 15.8% | -0.87% | 1.8% | 4.57% | 3.02% | -6.43% | 4.89% | inhibition ([3]; Compound concentration 10.0 uM): 12%; inhibition [22]: 5%; inhibition [23]: 6.35%
2 | C[C@H](O)c1nc(Cn2nc(-c3ccc(Cl)cc3)n(C[C@H](O)C(F)(F)F)c2=O)nn1-c1cccc(Cl)c1 [PECAVAPTAN] | 28.2% | 3.19% | -2.47% | -2.96% | -10% | -3.07% | 8% | 1.76% | 3.8% | 1.42% | -0.61% | 27.7% | -6.76% | 16.2% | 9.71% | 5.09% | -5.42% | 5.79% | -7.72% | -2.97% | inhibition ([3]; Compound concentration 0.0001 uM): 3%; inhibition ([3]; Compound concentration 0.001 uM): 6%; inhibition ([3]; Compound concentration 0.01 uM): 41%; inhibition ([3]; Compound concentration 0.1 uM): 84%; inhibition ([3]; Compound concentration 1.0 uM): 95%; inhibition [22]: 3%; inhibition [23]: 9.04%

Source: ChEMBL document CHEMBL5463729, “Data for DCP probe BAY 1753011” (2023)
